Experimental data from patent US20250127165A1, “USE OF 2-AMINO-3-PHENYLBUTYRIC ACID OR 2,6-DIAMINO-3-METHYLHEXANOIC ACID AS PLANT IMMUNE RESISTANCE INDUCER” (NANJING TIANNONG BIOTECHNOLOGY CO., LTD., priority 2021, published 2025).

Assays:
wheat powdery mildew = assay: Induced resistance of wheat seedlings to powdery mildew infection (pot test); type: in vivo, wheat (NAU0686); settings: for disease index / relative immunization effect: concentration higher than 1,000 nM
Method: 2-amino-3-phenylbutyric acid was dissolved in distilled water and then gradiently diluted with distilled water into solutions of 10 nM, 100 nM, 1,000 nM, and 10,000 nM, and a blank control was set up. After germination, wheat (NAU0686) seeds were planted in sterilized soil culture pot, and cultured in a greenhouse at 23° C. (+1° C.) and 12-h light/dark conditions. When the seedlings grew to the 1-leaf-1-heart stage, a solution of 2-amino-3-phenylbutyric acid at the above concentrations was sprayed onto the stems and leaves of wheat seedlings, and repeated the treatment at 24-hour intervals for a total of two treatments. After 24 hours, fresh wheat powdery mildew spores were uniformly sprinkled onto the wheat leaves, and each treatment comprised three pots of seedlings, with 20 plants per pot. After 10 days, the disease grade of wheat in each treatment group was investigated, and the morbidity degree was recorded according to the grading standard of wheat powdery in the “Pesticides-Guidelines for the Field Efficacy Trails” (I), and the disease index and the relative immunization effect were calculated in the same manner as those of tomato spotted wilt.
Grading Standard of Wheat Powdery Mildew (per leaf): • Grade 1: The area of diseased spots accounts for 5% or less of the whole leaf area; • Grade 3: The area of diseased spots accounts for 6%-15% of the whole leaf; • Grade 5: The area of diseased spots accounts for 16%-25% of the whole leaf; • Grade 7: The area of diseased spots accounts for 26%-50% of the whole leaf; • Grade 9: The area of diseased spots accounts for 50% or more of the whole leaf area.

Arabidopsis thaliana = assay: Induced resistance of Arabidopsis thaliana to high temperature stress; type: in vivo; settings: for heat injury index (%): 45° C. 12 h, 7 days recovery; for PIABS (photosynthetic performance index): after 45° C. for 12 h
Method: 2-amino-3-phenylbutyric acid was dissolved in distilled water and then gradiently diluted with distilled water into solutions of 100 nM, 1,000 nM, and 10,000 nM, and a blank control was set up, while 0.02% Tween 20 was added as surfactant. Four groups of replicates were set up for each concentration, and set up a blank control at room temperature. Arabidopsis thaliana seeds were planted in a pot with a diameter of 8.5 cm at about 50 seeds per pot, and grown in a greenhouse at a temperature of 22° C., a humidity of 60%-70%, and a light intensity of 100 μmol m^−2s^−1 (16 h light/8 h darkness). The treatment was initiated at the 21 d of seedling stage of Arabidopsis thaliana by spraying 2-amino-3-phenylbutyric acid solution on the leaf surface, and spraying twice within 24 hours. 24 hours after the second treatment, the plants were transferred to a light incubator at a temperature of 45° C. for high temperature stress treatment. After 12 h of treatment, they were treated in the dark at room temperature for 30 min, and then the chlorophyll fluorescence of the Arabidopsis thaliana leaves was measured with Plant Efficiency Handy PEA. Then, the plants were removed and transferred to a greenhouse at 25° C. for 7 days for recovery. The injured conditions of the plants were observed and the grade of hot injury was calculated, where the grading standard of heat injury is shown in Table 1, and the formula for calculating the heat injury index is as follows.
The concentrations of 2,6-diamino-3-methylhexanoic acid used in this trail are 0, 1, 10, 100 and 1,000 nM, and 0.02% Tween 20 is added as a surfactant. Four groups of replicates were set up. Other methods were the same as 2-amino-3-phenylbutyric acid, and the effect of 2,6-diamino-3-methylhexanoic acid to induce the resistance of Arabidopsis thaliana to high temperature stress was investigated.

wheat = assay: Induced resistance of wheat to drought stress (25% PEG-6000); type: in vivo; settings: for drought injury index (%) / dry weight (g) aboveground part / dry weight (g) underground part / fresh weight (g) aboveground part / fresh weight (g) underground part / length of root (cm): 6 days drought stress, 7 days recovery
Method: Wheat was hydroponic cultured in a 6-mesh sieve used as a container at 50 grains per sieve, and ½ Hoagland nutrient solution was changed every three days. When the wheat grew to the stage of two leaves and one bud, 2-amino-3-phenylbutyric acid solution was sprayed on the leaf surface, and the concentration of 2-amino-3-phenylbutyric acid was 0, 100 and 1,000 nM, and 0.02% Tween 20 was added as surfactant. After two days of continuous spraying, the hydroponic nutrient solution was replaced with ½ Hoagland nutrient solution containing 25% PEG-6000 on the 3rd day for stress treatment. After 6 days of drought stress, rehydration treatment was conducted. And after 7 days of recovery growth in normal nutrient solution, the drought injury index was observed and determined, and the root length and biomass were determined.
The performance characteristics of drought injury of leaves are similar to those of salt injury. The rate of drought injury and the drought injury index are introduced by using the evaluation indexes of salt injury. The formula for calculating the drought injury index is as follows, and the grading standard of drought injury is shown in Table 15.

[1] = 10,000 nM, versus untreated heat-stressed group

Structure (SMILES) | relative immunization effect (%) (wheat powdery mildew; 10 nM) | relative immunization effect (%) (wheat powdery mildew; 100 nM) | relative immunization effect (%) (wheat powdery mildew; 1,000 nM) | relative immunization effect (%) (wheat powdery mildew; 10,000 nM) | disease index (wheat powdery mildew) | relative immunization effect (wheat powdery mildew) | heat injury index (%) (Arabidopsis thaliana; 100 nM) | PIABS (photosynthetic performance index) (Arabidopsis thaliana; 100 nM) | heat injury index (%) (Arabidopsis thaliana; 1,000 nM) | PIABS (photosynthetic performance index) (Arabidopsis thaliana; 1,000 nM) | drought injury index (%) (wheat; 100 nM) | dry weight (g) aboveground part (wheat; 100 nM) [b g] | dry weight (g) underground part (wheat; 100 nM) [b g] | fresh weight (g) aboveground part (wheat; 100 nM) [b g] | fresh weight (g) underground part (wheat; 100 nM) [b g] | length of root (cm) (wheat; 100 nM) | decrease of drought injury index (wheat; 1,000 nM) [%] | increase of fresh weight of aboveground part compared with the control group (wheat; 1,000 nM) [%] | increase of fresh weight of underground part compared with the control group (wheat; 1,000 nM) [%] | increase of root length compared with the control group (wheat; 1,000 nM) [%] | also measured
CC(CCCN)C(N)C(=O)O (centres unmarked) [2,6-diamino-3-methylhexanoic acid] | 28.13 | 48.99 | 65.26 | 73.45 | lower than 50 | more than 50% | 29 | 5.73 ± 0.17 c | 9 | 9.49 ± 0.14 b | 40 | 0.94 ± 0.01 | 0.42 ± 0.01 | 7.70 ± 0.02 | 3.79 ± 0.01 | 14.35 ± 0.08 b cm | 59 | 31.03 | 34.42 | 9.77 | heat injury index (%) (Arabidopsis thaliana; 1 nM): 49%; PIABS (photosynthetic performance index) (Arabidopsis thaliana; 1 nM): 1.84 ± 0.02 e; heat injury index (%) (Arabidopsis thaliana; 10 nM): 38%; PIABS (photosynthetic performance index) (Arabidopsis thaliana; 10 nM): 3.58 ± 0.11 days; increase of PIABS compared with the control group (Arabidopsis thaliana; 1,000 nM): 36 fold; decrease of heat injury index (Arabidopsis thaliana; 1,000 nM, versus untreated heat-stressed group): 64%; drought injury index (%) (wheat; 1,000 nM): 21%; dry weight (g) aboveground part (wheat; 1,000 nM): 1.05 ± 0.01 a g; dry weight (g) underground part (wheat; 1,000 nM): 0.49 ± 0.01 a g; fresh weight (g) aboveground part (wheat; 1,000 nM): 8.99 ± 0.01 a g; fresh weight (g) underground part (wheat; 1,000 nM): 4.59 ± 0.03 a g; length of root (cm) (wheat; 1,000 nM): 14.63 ± 0.12 a cm
CC(c1ccccc1)C(N)C(=O)O (centres unmarked) [2-amino-3-phenylbutyric acid] | 19.88 | 30.77 | 55.38 | 66.92 | lower than 50 | more than 50% | 47 | 26.13 ± 7.37 bc | 31 | 27.27 ± 3.93 bc | 46 | 0.87 ± 0.01 | 0.38 ± 0.01 | 7.51 ± 0.24 | 3.77 ± 0.23 | 14.23 ± 0.12 a cm | 46 | 46.33 | 55.14 | 11.87 | heat injury index (%) (Arabidopsis thaliana; 10,000 nM): 16%; PIABS (photosynthetic performance index) (Arabidopsis thaliana; 10,000 nM): 33.40 ± 3.91 b; decrease of heat injury index (Arabidopsis thaliana; [1]): 56%; increase of PIABS (Arabidopsis thaliana; [1]): 134%; drought injury index (%) (wheat; 1,000 nM): 27%; dry weight (g) aboveground part (wheat; 1,000 nM): 0.94 ± 0.05 a g; dry weight (g) underground part (wheat; 1,000 nM): 0.43 ± 0.02 a g; fresh weight (g) aboveground part (wheat; 1,000 nM): 8.97 ± 0.32 a g; fresh weight (g) underground part (wheat; 1,000 nM): 4.53 ± 0.01 a g; length of root (cm) (wheat; 1,000 nM): 14.70 ± 0.37 a cm
